Results: patent publication US20110178165A1, “TETRAHYDROFURANYL SULFONAMIDES AND PHARMACEUTICAL COMPOSITIONS THEREOF” (Pfizer Inc., priority 2008, published 2011)

System: AMPA receptors
Assay: AMPA ES cell FLIPR screen (AMPA potentiator assay)
Format: cell-based
Settings: murine ES cell-derived neurons, FLIPR Fluo-4 calcium, 32 uM AMPA challenge; * = geometric mean of 2 EC50 determinations
Procedure: The murine ES cell line used was E14-Sx1-16C, which has a targeted mutation in the Sox1 gene, a neuroectodermal marker, that offers G418 resistance when the Sox1 gene is expressed (Stem Cell Sciences). ES cells were maintained undifferentiated as previously described (Roach). […] ES cells were plated on gelatin-coated dishes (BD Biosciences), the media was changed daily and the cells were dissociated with 0.05% Trypsin EDTA (Invitrogen) every other day.
Embryoid Body Formation: Prior to embryoid body (EB) formation the ES cells were weaned from FBS onto Knockout Serum Replacement (KSR) (Invitrogen). To form EBs, ES cells were dissociated into a single cell suspension, then 3×10^6 cells were plated in bacteriology dishes (Nunc 4014) and grown as a suspension culture in NeuroEB-I medium that consisted of Knockout™ D-MEM (Invitrogen), supplemented with 10% KSR (Invitrogen), 0.2 mM L-Glutamine (Invitrogen), 0.1 mM MEM non-essential amino acids (Invitrogen), 30 μg/ml Gentamicin (Invitrogen), 1000 u/ml ESGRO (Chemicon), 0.1 mM 2-Mercaptoethanl (Sigma) and 150 ng/ml Transferrin (Invitrogen). The plates were put on a Stovall Belly Button shaker in an atmospheric oxygen incubator. The media was changed on day 2 of EB formation with NeuroEB-I and on day 4 with NeuroEB-II (NeuroEB-I plus 1 μg/ml mNoggin [R&D Systems]).
Neuronal Precursor Selection and Expansion: On day 5 of EB formation, EBs were dissociated with 0.05% Trypsin EDTA, and 4×10^6 cells/100 mm dish were plated on Laminin coated tissue culture dishes in Neuroll-G418 medium that consisted of a base medium of a 1:1 mixture of D-MEM/F12 supplemented with N2 supplements and NeuroBasal Medium supplemented with B27 supplement and 0.1 mM L-Glutamine (all from Invitrogen). The base medium was then supplemented with 10 ng/ml bFGF (Invitrogen), 1 μg/ml mNoggin, 500 ng/ml SHH—N, 100 ng/ml FGF-8b (R&D Systems), 1 μg/ml Laminin and 200 μg/ml G418 (Invitrogen) for selection of neuronal precursors expressing Sox-1. The plates were put in an incubator that contained 2% Oxygen and were maintained in these conditions. During the 6-day selection period, the Neuroll media was changed daily. On day 6, the surviving neuronal precursor foci were dissociated with 0.05% Trypsin EDTA and the cells were plated at a density of 1.5×10^6 cells/100 mm Laminin coated dish in Neuroll-G418 medium. The cells were dissociated every other day for expansion, and prepared for Cryopreservation at passage 3 or 4. The crypreservation medium contained 50% KSR, 10% Dimethyl Sulfoxide (DMSO) (Sigma) and 40% Neurol-G418I medium. Neuronal precursors were cryopreserved at a concentration of 4×10^6 cells/ml and 1 ml/cryovial in a controlled rate freezer overnight then transferred to an ultra-low freezer or liquid nitrogen for long-term storage. […]

| EC50 [µM] | SMILES |
| --- | --- |
| > 31.6 | CC(C)S(=O)(=O)N[C@@H]1COC[C@@]1(O)c1ccc(-c2ccccc2)cc1 (stereo in doubt) [Example 4, N-[(3R,4R)-4-biphenyl-4-yl-4-hydroxytetrahydrofuran-3-yl]propane-2-sulfonamide] |
| 5.93 | CC(C)S(=O)(=O)N[C@H]1COC[C@]1(O)c1ccc(-c2ccc(C#N)s2)cc1 [Example 1, N-{(3S,4S)-4-[4-(5-cyano-2-thienyl)phenyl]-4-hydroxytetrahydrofuran-3-yl}propane-2-sulfonamide] |
| > 31.6 | CC(C)S(=O)(=O)N[C@@H]1COC[C@@]1(O)c1ccc(-c2ccc(C#N)s2)cc1 [Example 2, N-{(3R,4R)-4-[4-(5-cyano-2-thienyl)phenyl]-4-hydroxytetrahydrofuran-3-yl}propane-2-sulfonamide] |
| 1.19 | CC(C)S(=O)(=O)N[C@H]1COC[C@]1(O)c1ccc(-c2ccccc2)cc1 [Example 3, N-[(3S,4S)-4-biphenyl-4-yl-4-hydroxytetrahydrofuran-3-yl]propane-2-sulfonamide] |
